ChEMBL document CHEMBL1641454, “6-Benzylamino 4-oxo-1,4-dihydro-1,8-naphthyridines and 4-oxo-1,4-dihydroquinolines as HIV integrase inhibitors” (Bioorg Med Chem Lett, 2011)

Columns and labels:
[1] = Oral bioavailability in rat at 5 mg/kg; format: ADME, organism-based; settings: in vivo
[2] = Volume of distribution in rat at 2 mg/kg, iv; format: ADME, organism-based; set-up: dose 2 mg/kg, route intravenous; settings: in vivo
[3] = system: Human immunodeficiency virus 1; test: Antiviral activity against VSV-G protein pseudotyped HIV1 luciferase reporter virus in mixture of human HeLa/JC53 cells assessed as luminescence after 48 hrs; format: functional, organism-based; settings: Human immunodeficiency virus 1, Hela-JC53, 48 h
[4] = Plasma clearance in rat at 2 mg/kg, iv; format: ADME, organism-based; set-up: dose 2 mg/kg, route intravenous
[5] = Cmax in rat at 5 mg/kg, po; format: ADME, organism-based; set-up: dose 5 mg/kg, route oral; settings: in vivo
[6] = system: Human immunodeficiency virus 1; test: Antiviral activity against VSV-G protein pseudotyped HIV1 luciferase reporter virus in mixture of human HeLa/JC53 cells assessed as luminescence after 48 hrs in presence of 40% human serum; format: functional, organism-based; settings: Human immunodeficiency virus 1, Hela-JC53, 48 h
[7] = Half life in rat at 5 mg/kg, po; format: ADME, organism-based; set-up: dose 5 mg/kg, route oral; settings: in vivo
[8] = AUC in rat at 5 mg/kg, po; format: ADME, organism-based; set-up: dose 5 mg/kg, route oral; settings: plasma
[9] = Metabolic stability in human liver microsome assessed as compound remaining after 30 mins; format: ADME; settings: liver microsomes, read-out: Stability
[10] = Plasma clearance in Beagle dog at 1 mg/kg, iv; format: ADME, organism-based, Canis lupus familiaris; set-up: dose 1 mg/kg, route intravenous
[11] = Half life in Beagle dog at 1 mg/kg, iv; format: ADME, organism-based, Canis lupus familiaris; set-up: dose 1 mg/kg, route intravenous; settings: in vivo
[12] = Volume of distribution in Beagle dog at 1 mg/kg, iv; format: ADME, organism-based, Canis lupus familiaris; set-up: dose 1 mg/kg, route intravenous; settings: in vivo
[13] = Volume of distribution in rhesus monkey at 1 mg/kg, iv; format: ADME, organism-based, Macaca mulatta; set-up: dose 1 mg/kg, route intravenous; settings: in vivo
[14] = Plasma clearance in rhesus monkey at 1 mg/kg, iv; format: ADME, organism-based, Macaca mulatta; set-up: dose 1 mg/kg, route intravenous
[15] = Half life in rhesus monkey at 1 mg/kg, iv; format: ADME, organism-based, Macaca mulatta; set-up: dose 1 mg/kg, route intravenous; settings: in vivo

SMILES | EC50 [3] [nM] | EC50 [6] [nM] | remaining at 0.5 h [9] [%] | further results
COc1nc2c(cc1Cc1cccc(Cl)c1F)c(=O)c(C(=O)O)cn2[C@H](CO)C(C)(C)C | 8.6 | 61 | 82 | bioavailability [1]: 31%; Vd [2]: 2.31 L/kg; clearance [4]: 2.67 mL/min/kg; Cmax [5]: 1230 ng/mL; half-life [7]: 2.9 h; AUC [8]: 8500 ng·h/mL
CC(C)(C)[C@@H](CO)n1cc(C(=O)O)c(=O)c2cc(Cc3cccc(Cl)c3F)c(O)nc21 | 2.7 | 199 | 87 | 
CC(C)(C)[C@@H](CO)n1cc(C(=O)O)c(=O)c2cc(Cc3cccc(Cl)c3F)c(N3CCOCC3)nc21 | 9.9 | 39 | 97 | clearance [10]: 10 mL/min/kg; bioavailability [1]: 26%; half-life [11]: 2.6 h; Vd [12]: 1.03 L/kg; Vd [2]: 4.02 L/kg; Vd [13]: 3.06 L/kg; clearance [4]: 7 mL/min/kg; Cmax [5]: 414 ng/mL; half-life [7]: 2.6 h; clearance [14]: 19.7 mL/min/kg; half-life [15]: 8.1 h; AUC [8]: 2700 ng·h/mL
CCOc1nc2c(cc1Cc1cccc(Cl)c1F)c(=O)c(C(=O)O)cn2[C@H](CO)C(C)(C)C | 1.4 | 19 | 84 | 
CC[C@@H](CO)n1cc(C(=O)O)c(=O)c2cc(Cc3cccc(Cl)c3F)c(OC)nc21 | 40 | 307 |  | 
CCCC[C@@H](CO)n1cc(C(=O)O)c(=O)c2cc(Cc3cccc(Cl)c3F)c(OC)nc21 | 20 | 245 |  | 
CCC[C@@H](CO)n1cc(C(=O)O)c(=O)c2cc(Cc3cccc(Cl)c3F)c(OC)nc21 | 180 | 1020 |  | 
COc1nc2c(cc1NCc1ccc(F)cc1)c(=O)c(C(=O)O)cn2[C@H](CO)C(C)(C)C | 150 | 385 |  | 
COc1nc2c(cc1Nc1ccc(Cl)c(F)c1)c(=O)c(C(=O)O)cn2[C@H](CO)C(C)C | > 2500 |  |  | 
COc1nc2c(cc1Nc1ccc(F)cc1)c(=O)c(C(=O)O)cn2[C@H](CO)C(C)C | > 2500 |  |  | 
COc1cc2c(cc1Cc1cccc(Cl)c1F)c(=O)c(C(=O)O)cn2[C@H](CO)C(C)C [ELVITEGRAVIR] | 0.7 | 36 | 38 | clearance [10]: 10 mL/min/kg; bioavailability [1]: 26%; half-life [11]: 3.6 h; Vd [12]: 2.38 L/kg; Vd [2]: 2.74 L/kg; Vd [13]: 1.99 L/kg; clearance [4]: 3.83 mL/min/kg; Cmax [5]: 1140 ng/mL; half-life [7]: 2.9 h; clearance [14]: 7.17 mL/min/kg; half-life [15]: 3.2 h; AUC [8]: 5630 ng·h/mL
CC(C)[C@@H](CO)n1cc(C(=O)O)c(=O)c2cc(Cc3cccc(Cl)c3F)ncc21 | 54 | 425 | 100 | 
COc1nc2c(cc1NCc1cccc(Cl)c1F)c(=O)c(C(=O)O)cn2[C@H](CO)C(C)C | 490 | 2680 |  | 
COc1nc2c(cc1Nc1cccc(Cl)c1F)c(=O)c(C(=O)O)cn2[C@H](CO)C(C)C | > 2500 |  |  | 
COc1nc2c(cc1Cc1cccc(Cl)c1F)c(=O)c(C(=O)O)cn2[C@@H](C)CO | 177 | 1050 |  | 
COc1nc2c(cc1NCc1ccccc1F)c(=O)c(C(=O)O)cn2[C@H](CO)C(C)C | 81 | 283 | 97 | 
COc1nc(Cc2cccc(Cl)c2F)cc2c(=O)c(C(=O)O)cn([C@H](CO)C(C)C)c12 | 291 | 1770 |  | 
COc1nc2c(cc1Cc1cccc(Cl)c1F)c(=O)c(C(=O)O)cn2[C@H](CO)CC(C)C | 5.9 | 129 | 92 | 
COc1nc2c(cc1NCc1ccc(F)cc1F)c(=O)c(C(=O)O)cn2[C@H](CO)C(C)C | 4.6 | 139 | 87 | 
CC(C)Oc1nc2c(cc1Cc1cccc(Cl)c1F)c(=O)c(C(=O)O)cn2[C@H](CO)C(C)(C)C | 16 | 195 |  | 
COc1nc2c(cc1NCc1c(F)cc(F)cc1F)c(=O)c(C(=O)O)cn2[C@H](CO)C(C)C | 1.4 | 52 | 82 | 
COc1nc2c(cc1NCc1cccc(F)c1)c(=O)c(C(=O)O)cn2[C@H](CO)C(C)C | 1460 | 1590 |  | 
CC(C)[C@@H](CO)n1cc(C(=O)O)c(=O)c2nc(Cc3cccc(Cl)c3F)ccc21 | > 2500 |  |  | 
CC(C)[C@@H](CO)n1cc(C(=O)O)c(=O)c2cc(Cc3cccc(Cl)c3F)cnc21 | 65 | 1940 | 99 | 
CC(C)(C)[C@@H](CO)n1cc(C(=O)O)c(=O)c2cc(Cc3cccc(Cl)c3F)c(OCCO)nc21 | 0.9 | 2.4 | 45 | 
COc1nc2c(cc1NCc1ccc(F)cc1)c(=O)c(C(=O)O)cn2[C@H](CO)C(C)C | 98 | 421 | 87 | 
COc1nc2c(cc1Cc1cccc(Cl)c1F)c(=O)c(C(=O)O)cn2[C@H](CO)C(C)C | 11 | 136 | 100 | 
COc1nc2c(cc1NCc1c(F)cc(F)cc1F)c(=O)c(C(=O)O)cn2[C@H](CO)C(C)(C)C | 7.6 | 42 | 75 | clearance [10]: 15.5 mL/min/kg; bioavailability [1]: 23%; half-life [11]: 2 h; Vd [12]: 1.93 L/kg; Vd [2]: 4.18 L/kg; Vd [13]: 3.93 L/kg; clearance [4]: 5.83 mL/min/kg; Cmax [5]: 666 ng/mL; half-life [7]: 3.7 h; clearance [14]: 44.2 mL/min/kg; half-life [15]: 2.2 h; AUC [8]: 2890 ng·h/mL
